According to patent publication US10827754B2, “Fungicidal composition comprising a pyridylethylbenzamide derivative and a compound capable of inhibiting the ergosterol biosynthesis” (BAYER INTELLECTUAL PROPERTY GMBH, priority 2004, dated 2020):

What was measured:
Assay type in all cases: in vivo
[1] = system: Erysiphe graminis f sp. tritici; experiment: Example 7: efficacy against Erysiphe graminis on wheat plants, formulated compounds; conditions: Blumeria graminis, alone, grading 7 to 14 days after contamination
Procedure: (§1) The formulated compounds are diluted with water to obtain the desired active material concentration. Wheat plants (Audace variety) in starter cups, sown on 50/50 peat soil-pozzolana substrate and grown at 12° C., are treated at the 1-leaf stage (10 cm tall) by spraying with the aqueous suspension described above.
(§2) Plants, used as controls, are treated with an aqueous solution not containing the active material.
After 24 hours, the plants are contaminated by dusting them with Erysiphe graminis f sp. tritici spores, the dusting being carried out using diseased plants. Grading is carried out 7 to 14 days after the contamination, in comparison with the control plants.

[2] = system: Erysiphe graminis f sp. tritici; experiment: Example 2: efficacy against Erysiphe graminis on wheat plants, spray 24 h before contamination; conditions: Blumeria graminis, alone, grading 7 to 14 days after contamination
Procedure: (§3) The active ingredients tested are prepared by potter homogenisation in a mixture of acetone/tween/water. This suspension is then diluted with water to obtain the desired active material concentration.
Wheat plants (Audace variety) in starter cups, sown on 50/50 peat soil-pozzolana substrate and grown at 12° C., are treated at the 1-leaf stage (10 cm tall) by spraying with the aqueous suspension described above.
as §2
(§4) After 24 hours, the plants are contaminated by dusting them with Erysiphe graminis f sp. tritici spores, the dusting being carried out using diseased plants.
(§5) Grading is carried out 7 to 14 days after the contamination, in comparison with the control plants.

Botrytis cinerea [3] = experiment: Example 15: efficacy against Botrytis cinerea on gherkin plants, formulated compounds; conditions: read-out: % Efficacy
Procedure: (§6) The formulated compounds are diluted with water to obtain the desired active material concentration.
(§7) Gherkin plants (Petit vert de Paris variety) in starter cups, sown on a 50/50 peat soil-pozzolana substrate and grown at 18-20° C., are treated at the cotyledon Z11 stage by spraying with the aqueous suspension described above. Plants, used as controls, are treated with an aqueous solution not containing the active material.
(§8) After 24 hours, the plants are contaminated by depositing drops of an aqueous suspension of Botrytis cinerea spores (150,000 spores per ml) on upper surface of the leaves. The spores are collected from a 15-day-old culture and are suspended in a nutrient solution composed of: • 20 g/L of gelatine • 50 g/L of cane sugar • 2 g/L of NH4NO3 • 1 g/L of KH2PO4
(§9) The contaminated gherkin plants are settled for 5/7 days in a climatic room at 15-11° C. (day/night) and at 80% relative humidity. Grading (% of efficacy) is carried out 5 to 7 days after the contamination, in comparison with the control plants.

Sphaerotheca fuliginea = experiment: Example 11: efficacy against Sphaerotheca fuliginea on gherkin plants, formulated compounds; conditions: Podosphaera fuliginea, 504 h, alone, grading 21 days after contamination
Procedure: (§10) The formulated compounds are diluted with water to obtain the desired active material concentration
as §7, with “(Vert petit” for “(Petit vert”, “20° C./23°” for “18-20°”, “2-leaves” for “cotyledon Z11”
After 24 hours, the plants are contaminated by spraying them with an aqueous suspension of Sphaerotheca fuliginea spores (100 000 spores per ml). The spores are collected from a contaminated plants. The contaminated gerkhin plants are incubated at about 20° C./25° C. and at 60/70% relative humidity.
Grading (% of efficacy) is carried out 21 days after the contamination, in comparison with the control plants.

[4] = system: Mycosphaerella graminicola; experiment: Example 1: efficacy against Mycosphaerella graminicola on wheat plants, spray 24 h before contamination; conditions: Zymoseptoria tritici, alone, grading 21 to 28 days after contamination
Procedure: as §3
(§11) Wheat plants (Scipion variety), sown on a 50/50 peat soil-pozzolana substrate in starter cups and grown at 12° C., are treated at the 1-leaf stage (10 cm tall) by spraying with the aqueous suspension described above. Plants, used as controls, are treated with an aqueous solution not containing the active material.
(§12) After 24 hours, the plants are contaminated by spraying them with an aqueous suspension of Mycosphaerella graminicola spores (500 000 spores per ml). The spores are collected from a 7-day-old culture. The contaminated wheat plants are incubated for 72 hours at 18° C. and at 100% relative humidity, and then for 21 to 28 days at 90% relative humidity.
(§13) Grading (% of efficacy) is carried out 21 to 28 days after the contamination, in comparison with the control plants.

Puccinia recondita [5] = experiment: Example 10: efficacy against Puccinia recondita on wheat plants; conditions: 240 h, alone, grading 10 days after contamination
Procedure: as §3
Wheat plants (Scipion variety) in starter cups, sown on 50/50 peat soil-pozzolana substrate and grown at 12° C., are treated at the 1-leaf stage (10 cm tall) by spraying with the aqueous suspension described above.
as §2
(§14) After 24 hours, the plants are contaminated by spraying the leaves with an aqueous suspension of Puccinia recondita spores (100,000 spores per ml). The spores are collected from a 10-day-old contaminated wheat and are suspended in water containing 2.5 ml/l of tween 80 10%. The contaminated wheat plants are incubated for 24 hours at 20° C. and at 100% relative humidity, and then for 10 days at 20° C. and at 70% relative humidity. Grading is carried out 10 days after the contamination, in comparison with the control plants.

[6] = system: Mycosphaerella graminicola; experiment: Example 12: efficacy against Mycosphaerella graminicola on wheat plants, formulated compounds; conditions: Zymoseptoria tritici
Procedure: as §10, §11, §12, §13

[7] = system: Erysiphe graminis f sp. tritici; experiment: Example 4: efficacy against Erysiphe graminis on wheat plants, formulated compounds; conditions: Blumeria graminis, alone, grading 7 to 14 days after contamination
Procedure: as §1, with “formulated (concentrated suspension)” for “formulated”, “concentration” for “concentration.”
as §2, §4, §5

Botrytis cinerea [8] = experiment: Example 6: efficacy against Botrytis cinerea on gherkin plants; conditions: alone, grading 5 to 7 days after contamination
Procedure: as §3, §7, §8, §9

[9] = system: Erysiphe graminis f sp. tritici; experiment: Example 14: efficacy against Erysiphe graminis on wheat plants, formulated compounds; conditions: Blumeria graminis, alone, grading 7 to 14 days after contamination
Procedure: as §1, with “concentration” for “concentration.”
as §2, §4, §5

Botrytis cinerea [10] = experiment: Example 5: efficacy against Botrytis cinerea on gherkin plants; conditions: alone, grading 5 to 7 days after contamination
Procedure: as §3, §7, §8, §9

Botrytis cinerea [11] = experiment: Example 9: efficacy against Botrytis cinerea on gherkin plants, formulated compounds; conditions: alone, grading 5 to 7 days after contamination
Procedure: as §6, §7, §8, §9

Puccinia recondita [12] = experiment: Example 8: efficacy against Puccinia recondita on wheat plants, formulated compounds; conditions: 240 h, alone, grading 10 days after contamination
Procedure: as §1, with “concentration” for “concentration.”, “(Scipion” for “(Audace”
as §2, §14

Botrytis cinerea [13] = experiment: Example 13: efficacy against Botrytis cinerea on gherkin plants, formulated compounds; conditions: alone, grading 5 to 7 days after contamination
Procedure: as §6, §7, §8, §9

Botrytis cinerea [14] = experiment: Example 16: efficacy against Botrytis cinerea on gherkin plants, formulated compounds; conditions: alone, grading 5 to 7 days after contamination
Procedure: as §6, §7, §8, §9

Botrytis cinerea [15] = experiment: Example 3: efficacy against Botrytis cinerea on gherkin plants, spray 24 h before contamination; conditions: alone, grading 5 to 7 days after contamination
Procedure: as §3, §7, §8, §9

[16] = system: Erysiphe graminis f sp. tritici; experiment: Example 17: efficacy against Erysiphe graminis on wheat plants, formulated compounds; conditions: Blumeria graminis, alone, grading 7 to 14 days after contamination
Procedure: as §1, with “compounds (Compound 1 and a mix of spiroxamine (300 g/l) and prothioconazole (160 g/l)” for “compounds”, “concentration” for “concentration.”
as §2, §4, §5

Molecule `CC1(C)CCC(Cc2ccc(Cl)cc2)C1(O)Cn1cncn1` (stereo not drawn) [Metconazole, reference compound] has an Emax at 31.2 g/ha ([1]; dose 31.2 g/ha) of 50%.

`OC(Cc1ccccc1Cl)(Cn1nc[nH]c1=S)C1(Cl)CC1` (stereo not drawn) [Prothioconazole, reference compound] showed an Emax at 125 g/ha [2] of 0% and an Emax at 250 g/ha ([2]; dose 250 g/ha) of 60%.

For `O=CNC(N1CCN(C(NC=O)C(Cl)(Cl)Cl)CC1)C(Cl)(Cl)Cl` (stereo not drawn) [Triforine], the Emax at 37 ppm (Botrytis cinerea [3]) was 0% and the Emax at 111 ppm (Botrytis cinerea [3]) was 15%.

In the case of `CC1(C(=O)Nc2ccc(O)c(Cl)c2Cl)CCCCC1` [Fenhexamid, reference compound], the Emax at 37 ppm (Sphaerotheca fuliginea; dose 37 ppm) is reported as 35%.

In the case of `CC(C)(C)C(O)(CCc1ccc(Cl)cc1)Cn1cncn1` (stereo not drawn) [Tebuconazole, reference compound], the Emax at 15 g/ha [4] is reported as 15% and the Emax at 31 g/ha [4] is reported as 15%.

In the case of `CC(C)(C)C(O)C(Oc1ccc(Cl)cc1)n1cncn1` (stereo not drawn) [Triadimenol, reference compound], the Emax at 250 g/ha (Puccinia recondita [5]) is reported as 50%.

`CCCN(CCOc1c(Cl)cc(Cl)cc1Cl)C(=O)n1ccnc1` [Prochloraz, reference compound] was tested, and the Emax at 250 g/ha ([6]; read-out: % Efficacy) was 54%.

With `CC(C1CC1)C(O)(Cn1cncn1)c1ccc(Cl)cc1` (stereo not drawn) [Cyproconazole, reference compound] the Emax at 31.2 g/ha ([7]; dose 31.2 g/ha) was 15%.

`CCCCC(O)(Cn1cncn1)c1ccc(Cl)cc1Cl` (stereo not drawn) [Hexaconazole, reference compound] gave an Emax at 111 ppm (Botrytis cinerea [8]; dose 111 ppm) of 15%.

`CCCN(CC)CC1COC2(CCC(C(C)(C)C)CC2)O1` (stereo not drawn) [Spiroxamine, reference compound] showed an Emax at 125 g/ha ([9]; dose 125 g/ha) of 0%.

With `CC1COC(Cn2cncn2)(c2ccc(Oc3ccc(Cl)cc3)cc2Cl)O1` (stereo not drawn) [Difenconazole, reference compound] the Emax at 111 ppm (Botrytis cinerea [10]) was 15% and the Emax at 333 ppm (Botrytis cinerea [10]; dose 333 ppm) was 25%.

Molecule `CCCCC(C#N)(Cn1cncn1)c1ccc(Cl)cc1` (stereo not drawn) [Myclobutanil, reference compound] has an Emax at 333 ppm (Botrytis cinerea [11]; dose 333 ppm) of 0%.

For `Fc1ccc([C@]2(Cn3cncn3)O[C@H]2c2ccccc2Cl)cc1` (racemic) [Epoxiconazole, reference compound], the Emax at 15.6 g/ha (Puccinia recondita [12]; dose 15.6 g/ha) was 25%.

In the case of `CC(Cc1ccc(C(C)(C)C)cc1)CN1C[C@@H](C)O[C@@H](C)C1` (stereo partly drawn) [Fenpropimorph, reference compound], the Emax at 62.5 g/ha (Botrytis cinerea [13]) is reported as 10% and the Emax at 125 g/ha (Botrytis cinerea [13]; dose 125 g/ha) is reported as 30%.

`CC(C)(C)C(O)C(Oc1ccc(-c2ccccc2)cc1)n1cncn1` (stereo not drawn) [Bitertanol, reference compound] gave an Emax at 333 ppm (Botrytis cinerea [14]; dose 333 ppm) of 0%.

Molecule `O=C(NCCc1ncc(C(F)(F)F)cc1Cl)c1ccccc1C(F)(F)F` [Compound 1, N-{2-[3-chloro-5-(trifluoromethyl)-2-pyridinyl]ethyl}-2-trifluoromethylbenzamide] has an Emax at 62.5 g/ha ([2]; dose 62.5 g/ha) of 0%, an Emax at 125 g/ha [2] of 20% and an Emax at 12 ppm (Botrytis cinerea [15]; dose 12 ppm) of 0%. It also gave an Emax at 37 ppm (Botrytis cinerea [15]) of 30%, an Emax at 111 ppm (Botrytis cinerea [15]) of 80% and an Emax at 12.3 ppm (Botrytis cinerea [14]; dose 12.3 ppm) of 5%. The Emax at 62.5 g/ha ([6]; dose 62.5 g/ha, alone, wheat, grading 21 to 28 days after contamination) was 77%, the Emax at 250 g/ha (Puccinia recondita [5]) was 0% and the Emax at 37 ppm (Botrytis cinerea [3]; dose 37 ppm, alone, gherkin, grading 5 to 7 days after contamination) was 50%. The Emax at 500 g/ha ([9]; dose 500 g/ha) was 44%, the Emax at 62.5 g/ha (Puccinia recondita [12]; dose 62.5 g/ha) was 0% and the Emax at 250 g/ha (Puccinia recondita [12]; dose 250 g/ha) was 0%. It also gave an Emax at 12.3 ppm (Botrytis cinerea [11]; dose 12.3 ppm) of 0%, an Emax at 37 ppm (Botrytis cinerea [11]; dose 37 ppm) of 50% and an Emax at 31.2 g/ha (Botrytis cinerea [13]; dose 31.2 g/ha) of 20%. It also gave an Emax at 62.5 g/ha (Botrytis cinerea [13]) of 30%, an Emax at 37 ppm (Botrytis cinerea [10]; dose 37 ppm) of 0% and an Emax at 111 ppm (Botrytis cinerea [10]) of 80%. For the same molecule, the Emax at 250 g/ha ([1]; dose 250 g/ha) was 40%, the Emax at 4 ppm (Botrytis cinerea [8]; dose 4 ppm) was 10% and the Emax at 125 g/ha [16] was 0%. It also gave an Emax at 15 g/ha [4] of 25%, an Emax at 31 g/ha [4] of 65% and an Emax at 4.1 ppm (Sphaerotheca fuliginea; dose 4.1 ppm) of 28%. For the same molecule, the Emax at 62.5 g/ha ([7]; dose 62.5 g/ha) was 10%.

Work on `CCCC1COC(Cn2cncn2)(c2ccc(Cl)cc2Cl)O1` (stereo not drawn) [Propiconazole, reference compound] yielded an Emax at 37 ppm (Botrytis cinerea [15]) of 30%, an Emax at 111 ppm (Botrytis cinerea [15]) of 50% and an Emax at 333 ppm (Botrytis cinerea [15]; dose 333 ppm) of 70%.
